System: presynaptic dopamine receptor (dopamine autoreceptor)
Test: rat gamma-butyrolactone (GBL) model, in-vivo presynaptic dopamine agonist (autoreceptor agonist) activity
Conditions: i.p.
Experimental: Indicative of potential neuroleptic activity of the compounds of the invention, the in-vivo presynaptic dopamine agonist activity (also called dopamine autoreceptor agonist activity) is determined in the rat gamma-butyrolactone (GBL) model by a modification of the procedure described by Walters and Roth, Naunyn Schmiedeberg's Arch. Pharmacol. 296, 5 (1976). In this model, a presynaptic dopamine agonist inhibits the GBL-induced accumulation of the dopamine precursor DOPA after pretreatment with 3-hydroxybenzylhydrazine (NSD-1015), a DOPA decarboxylase inhibitor.
Test compounds are dissolved in 0.9% saline, with sodium metabisulfite to prevent oxidation, if required. […] Dihydroxyphenylalanine (DOPA) is analyzed by High Pressure Liquid Chromatography/Electrochemistry (HPLC/EC) techniques using a Bio-analytical Systems (BAS) Model LC-150 series Liquid Chromatograph. […] Compounds are detected with an electro-chemical detector having an oxidizing potential of 0.7 volts and sensitivity setting of 20 nAmps/V. Tissue concentrations and recoveries are calculated by using the internal standard dihydroxybenzylamine (DHBA). […] Data is statistically analysed by one-way Analysis of Variance with Duncan's Multiple Comparison Test. The activity of the test compounds is determined as the percent inhibition of DOPA accumulation at a given dose. […]

Structure (SMILES): CCCN1CCC[C@@H]2c3cc(O)ccc3OC[C@H]21.Cl (relative stereo) [trans-9-hydroxy-4-propyl-1,2,3,4a,5,10b-hexahydro-4H-[1]-benzopyrano[3,4-b]pyridine hydrochloride]
- ED50 in the GBL model (inhibition of DOPA accumulation by 50%): about 0.16 mg/kg

From patent US4721787A, “Process for the preparation of benzo-(pyrano and thiopyrano)-pyridines” (Ciba-Geigy Corporation, priority 1985, dated 1988)
